Data on 26 compounds can be found in ChEMBL document CHEMBL1287696, “N-substituted pyrrolidines and tetrahydrofurans as novel AMPAR positive modulators” (Bioorg Med Chem Lett, 2010).

Bounds are passed on as bounds.

In series [1] the target is T1, Glutamate receptor 2 (Homo sapiens, UniProt P42262). Nature of the series: Positive modulation of human GluA2 flip receptor by FLIPR assay.
The target of series [2] is Voltage-gated inwardly rectifying potassium channel KCNH2 (Homo sapiens, UniProt Q12809). As to the kind of experiment: Displacement of [3H]-dofetilide from human hERG. On the technique in general: Loss of bound radioactivity is the signal in a displacement assay; it reports binding, not function.
For series [3], the system named is Liver microsomes. As to the kind of experiment: Intrinsic clearance in human liver microsomes. Format: ADME, Microsome.
Series [4] addresses T1, Glutamate receptor 2. As to the kind of experiment: Positive modulation of human GluA2 flip receptor by FLIPR assay relative to cyclothiazide. Also on record: concentration or dose not given beside the values.
The nature of series [5]: Aqueous solubility of the compound. Format: physicochemical. To be noted: aqueous medium.
Series [6] in a line: Ratio of drug level in brain to blood in rat.
Series [7] is described as follows: Half life in rat. Format: ADME, organism-based. The following applies: in vivo.

T1 sequence (P42262 whole entry): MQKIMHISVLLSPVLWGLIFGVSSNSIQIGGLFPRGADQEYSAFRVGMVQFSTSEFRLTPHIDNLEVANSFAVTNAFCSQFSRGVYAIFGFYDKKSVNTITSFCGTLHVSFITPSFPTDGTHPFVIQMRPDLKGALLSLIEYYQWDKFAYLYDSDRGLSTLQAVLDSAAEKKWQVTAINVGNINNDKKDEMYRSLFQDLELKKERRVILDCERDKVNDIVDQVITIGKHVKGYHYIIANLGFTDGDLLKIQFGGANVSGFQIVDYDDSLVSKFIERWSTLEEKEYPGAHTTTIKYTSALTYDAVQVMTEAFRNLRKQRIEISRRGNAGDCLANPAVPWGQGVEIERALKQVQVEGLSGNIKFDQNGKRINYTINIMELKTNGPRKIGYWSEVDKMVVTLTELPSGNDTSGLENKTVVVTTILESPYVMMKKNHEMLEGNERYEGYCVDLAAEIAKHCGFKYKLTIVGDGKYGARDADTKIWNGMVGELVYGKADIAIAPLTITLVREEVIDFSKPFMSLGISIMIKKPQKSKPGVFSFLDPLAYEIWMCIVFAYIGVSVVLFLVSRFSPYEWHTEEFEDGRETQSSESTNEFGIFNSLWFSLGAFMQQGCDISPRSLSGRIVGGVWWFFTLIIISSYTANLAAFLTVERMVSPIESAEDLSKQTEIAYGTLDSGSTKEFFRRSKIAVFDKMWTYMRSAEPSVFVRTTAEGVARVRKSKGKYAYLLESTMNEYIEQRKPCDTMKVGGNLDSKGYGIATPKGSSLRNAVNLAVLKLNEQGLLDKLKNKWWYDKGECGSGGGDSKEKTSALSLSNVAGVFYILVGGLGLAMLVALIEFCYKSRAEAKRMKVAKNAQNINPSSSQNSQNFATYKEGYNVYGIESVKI
Chain of Voltage-gated inwardly rectifying potassium channel KCNH2 (Q12809 whole entry): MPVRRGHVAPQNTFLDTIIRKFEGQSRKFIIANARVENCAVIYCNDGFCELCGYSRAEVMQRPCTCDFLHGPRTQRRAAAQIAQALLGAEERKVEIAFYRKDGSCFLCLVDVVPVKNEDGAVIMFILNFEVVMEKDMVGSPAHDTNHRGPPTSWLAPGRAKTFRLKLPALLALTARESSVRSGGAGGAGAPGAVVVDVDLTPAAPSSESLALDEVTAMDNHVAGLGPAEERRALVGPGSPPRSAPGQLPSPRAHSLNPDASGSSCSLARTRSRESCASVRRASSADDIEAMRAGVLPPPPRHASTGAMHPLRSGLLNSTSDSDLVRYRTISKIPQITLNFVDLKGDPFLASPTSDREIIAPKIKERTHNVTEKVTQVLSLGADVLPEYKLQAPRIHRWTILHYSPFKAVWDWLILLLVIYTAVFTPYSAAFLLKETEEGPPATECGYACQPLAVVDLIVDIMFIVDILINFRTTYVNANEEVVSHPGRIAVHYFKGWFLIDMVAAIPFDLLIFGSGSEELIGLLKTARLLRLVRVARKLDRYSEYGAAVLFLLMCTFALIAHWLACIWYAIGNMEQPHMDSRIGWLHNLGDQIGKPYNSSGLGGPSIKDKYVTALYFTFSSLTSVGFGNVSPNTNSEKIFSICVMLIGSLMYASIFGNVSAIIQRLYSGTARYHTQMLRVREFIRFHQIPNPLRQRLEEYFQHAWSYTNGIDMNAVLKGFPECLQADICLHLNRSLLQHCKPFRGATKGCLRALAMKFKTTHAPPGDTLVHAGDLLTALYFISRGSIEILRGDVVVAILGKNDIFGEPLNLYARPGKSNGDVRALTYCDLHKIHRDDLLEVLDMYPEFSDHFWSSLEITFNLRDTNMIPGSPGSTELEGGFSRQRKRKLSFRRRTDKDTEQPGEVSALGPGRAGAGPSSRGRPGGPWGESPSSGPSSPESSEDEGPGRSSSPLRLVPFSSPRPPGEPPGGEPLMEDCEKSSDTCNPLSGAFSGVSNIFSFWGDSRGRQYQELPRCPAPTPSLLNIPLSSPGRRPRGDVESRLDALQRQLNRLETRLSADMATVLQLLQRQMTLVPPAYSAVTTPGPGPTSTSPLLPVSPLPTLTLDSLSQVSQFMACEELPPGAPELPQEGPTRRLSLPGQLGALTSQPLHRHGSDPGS

For `CC(C)S(=O)(=O)N[C@H]1CN(C)CC1c1ccc(-c2ccc(F)nc2)cc1` (single isomer, unassigned), the EC50 in series [1] stood at 5 µM. In series [2], this compound came in with an IC50 of 1 µM. The CL in series [3] turned out to be 0.8 mL/min/g. In series [4], this compound had an Activity of 117%.
Consider `CC(C)S(=O)(=O)N[C@H]1CN(c2ccccc2)CC1c1ccc(-c2ccc(F)nc2)cc1` (single isomer, unassigned), for which the EC50 in series [1] came out at 4 µM. Also, in series [2], the IC50 is 0.08 µM. Further, the Activity in series [4] amounted to 74%.
As for `CC(C)S(=O)(=O)N[C@H]1CN(C)CC1c1ccc(-c2cccs2)cc1` (single isomer, unassigned), the EC50 in series [1] is 20 µM. The compound also returned an IC50 in series [2] above 63 µM. The same compound gave an Activity in series [4] of 29%.
The corresponding values for `CC(C)S(=O)(=O)N[C@H]1CN(C)CC1c1ccc(-c2ccsc2)cc1` (single isomer, unassigned) are 3.2 µM, 4 µM and 106%.
In series [1], `CC(C)S(=O)(=O)N[C@@H]1COCC1c1ccc(-c2ccc(C#N)cc2)cc1` (single isomer, unassigned) registered an EC50 of 0.5 µM. Besides, the IC50 in series [2] is 12.6 µM. This compound had an Activity in series [4] of 112%.
Take `CC(=O)c1cccc(-c2ccc(C3COC[C@H]3NS(=O)(=O)C(C)C)cc2)c1` (single isomer, unassigned): the EC50 in series [1] came to 0.1 µM. This compound also came in with an Activity in series [4] of 124%.
Compound `CC(C)S(=O)(=O)N[C@@H]1COCC1c1ccc(-c2ccc(F)nc2)cc1` (single isomer, unassigned) returned an EC50 in series [1] of 0.3 µM. For the same compound, in series [2], the IC50 worked out at 12.6 µM. In series [4], this compound came in with an Activity of 125%.
In series [1], `CC(C)S(=O)(=O)N[C@@H]1COCC1c1ccc(-c2cncc(F)c2)cc1` (single isomer, unassigned) registered an EC50 of 0.3 µM. In series [2], this compound returned an IC50 above 63 µM. Besides, the CL in series [3] turned out to be 0.6 mL/min/g. For the same compound, the Activity in series [4] is 131%.
Turning to `CC(C)S(=O)(=O)N[C@@H]1COCC1c1ccc(-c2ccc(F)cn2)cc1` (single isomer, unassigned), the response in series [1] was half-maximal at 0.3 µM (EC50). In series [2], the half-inhibitory concentration (IC50) was above 63 µM. This compound also came in with a CL in series [3] of 0.8 mL/min/g. Besides, the Activity in series [4] was 117%.
For the compound `CC(C)S(=O)(=O)N[C@@H]1COCC1c1ccc(-c2cccs2)cc1` (single isomer, unassigned), it took 0.3 µM to reach a half-maximal effect in series [1] (EC50). This compound also yielded an IC50 in series [2] above 63 µM. Moreover, the Activity in series [4] was 117%.
As for `CC(C)S(=O)(=O)N[C@@H]1COCC1c1ccc(-c2ccsc2)cc1` (single isomer, unassigned), the response in series [1] was half-maximal at 0.4 µM (EC50). The Activity in series [4] amounted to 120%.
In series [1], `CC(C)S(=O)(=O)N[C@H]1CN(C)CC1c1ccc(-c2cccc(NS(C)(=O)=O)c2)cc1` (single isomer, unassigned) yielded an EC50 of 0.3 µM. Also, the IC50 in series [2] is 31.6 µM. The compound further registered a solubility in series [5] above 9000 µg/mL. In series [4], this compound showed an Activity of 124%.
In series [1], `CCN1CC(c2ccc(-c3cccc(NS(C)(=O)=O)c3)cc2)[C@@H](NS(=O)(=O)C(C)C)C1` (single isomer, unassigned) showed an EC50 of 1.6 µM. In series [2], the IC50 stood at 2.5 µM. In series [3], this compound gave a CL of 0.7 mL/min/g. The compound further registered an Activity in series [4] of 111%.
With `CC(C)N1CC(c2ccc(-c3cccc(NS(C)(=O)=O)c3)cc2)[C@@H](NS(=O)(=O)C(C)C)C1` (single isomer, unassigned), in series [3], the CL was found to be 0.7 mL/min/g. This compound came in with an Activity in series [4] of 89%.
`CC(C)S(=O)(=O)N[C@H]1CN(c2ccccc2)CC1c1ccc(-c2cccc(NS(C)(=O)=O)c2)cc1` (single isomer, unassigned): a half-maximal response in series [1] (EC50) required 5 µM. Besides, the Activity in series [4] was 38%.
In the case of `CC(C)S(=O)(=O)N[C@H]1CN(C)CC1c1ccc(-c2ccc(C#N)cc2)cc1` (single isomer, unassigned), the EC50 in series [1] is 5 µM. Moreover, the CL in series [3] is 0.8 mL/min/g. Further, in series [6], the Kp came to 1.8. Besides, the half-life in series [7] is above 2 h. This compound also yielded a solubility in series [5] above 2700 µg/mL. In addition, the Activity in series [4] was 109%.
`CCN1CC(c2ccc(-c3ccc(C#N)cc3)cc2)[C@@H](NS(=O)(=O)C(C)C)C1` (single isomer, unassigned): a half-maximal response in series [1] (EC50) required 7.9 µM. In series [3], this compound showed a CL of 1.2 mL/min/g. In series [4], this compound registered an Activity of 90%.
`CC(C)N1CC(c2ccc(-c3ccc(C#N)cc3)cc2)[C@@H](NS(=O)(=O)C(C)C)C1` (single isomer, unassigned) yielded an EC50 in series [1] of 20 µM. Also, the Activity in series [4] worked out at 30%.
For `CC(C)S(=O)(=O)N[C@H]1CN(c2ccccc2)CC1c1ccc(-c2ccc(C#N)cc2)cc1` (single isomer, unassigned), a half-maximal effect in series [1] (EC50) was put at 6.2 µM. For the same compound, the IC50 in series [2] came to 0.8 µM. Moreover, in series [4], the Activity worked out at 48%.
In the case of `CC(C)S(=O)(=O)N[C@H]1CN(C)CC1c1ccc(-c2cccc(S(C)(=O)=O)c2)cc1` (single isomer, unassigned), the response in series [1] was half-maximal at 5 µM (EC50). This compound yielded an Activity in series [4] of 75%.
The compound `CC(=O)Nc1cccc(-c2ccc(C3CN(C)C[C@@H]3NS(=O)(=O)C(C)C)cc2)c1` (single isomer, unassigned) came in with an EC50 in series [1] of 4 µM. The compound further gave an IC50 in series [2] of 12.6 µM. In series [4], this compound showed an Activity of 79%.
For `CC(=O)c1cccc(-c2ccc(C3CN(C)C[C@@H]3NS(=O)(=O)C(C)C)cc2)c1` (single isomer, unassigned), it took 6.3 µM to reach a half-maximal effect in series [1] (EC50). In series [2], this compound yielded an IC50 of 7.9 µM. Moreover, the Activity in series [4] came out at 73%.
With `CC(C)S(=O)(=O)N[C@H]1CN(C)CC1c1ccc(-c2cccc(C(F)(F)F)c2)cc1` (single isomer, unassigned), it took 79.4 µM to reach a half-maximal effect in series [1] (EC50). The compound also showed an Activity in series [4] of 26%.
In turn, `CC(C)S(=O)(=O)N[C@H]1CN(C)CC1c1ccc(-c2ccccc2F)cc1` (single isomer, unassigned) showed an EC50 in series [1] of 2.5 µM. Besides, the Activity in series [4] is 20%.
Compound `CC(C)S(=O)(=O)N[C@H]1CN(C)CC1c1ccc(-c2cccnc2)cc1` (single isomer, unassigned) displayed an EC50 in series [1] of 4 µM. The compound also registered an IC50 in series [2] of 31.6 µM. Further, the Activity in series [4] came out at 100%.
Consider `CC(C)S(=O)(=O)N[C@H]1CN(C)CC1c1ccc(-c2cccnc2F)cc1` (single isomer, unassigned), for which the EC50 in series [1] was 2.5 µM. Also, in series [2], the IC50 was found to be 6.3 µM. In series [4], the Activity came to 101%.

What is called EC50 is the midpoint of the concentration-response curve. Usually IC50 stands for the concentration that inhibits the measured activity by half. One may read the solubility as the dissolved amount per volume that the medium holds. The term Kp denotes tissue or fluid exposure divided by exposure in the circulation. As a reminder, the half-life is the time needed for the level to fall by half in the phase considered.
